Reference: patent US12227501B2, “3-amino-2-[2-(acylamino)pyridin-4-yl]-1,5,6,7-tetrahydro-4h-pyrrolo[3,2-c]pyridin-4-one as CSNK1 inhibitors” (Bayer Aktiengesellschaft, priority 2019, dated 2025)
“And” between values parts separate entries of the source, which are not always exact repeats. Identical values can stand only once. Counter-ions that a name gives are not always drawn. Like-named read-outs stand apart in the source and are kept apart here.

Key:
Assay type in all cases: biochemical
[1] = target: wild-type Epidermal Growth Factor Receptor (EGFR) (Homo sapiens (Human), UniProt P00533); test: WT-EGFR Kinase Assay (TR-FRET, 2 mM ATP)
[2] = target: T1, human CSNK1A1 (Homo sapiens (Human), UniProt P48729); test: CSNK1A1 High ATP Assay (ADP-Glo, 1 mM ATP); conditions: read-out: CSNK1A1 high ATP assay IC50 [mol/l] (median)
Procedure: CSNK1A1-inhibitory activity of compounds of the present invention in presence of 1 mM adenosine-tri-phosphate (ATP) was quantified employing the CSNK1A1-high-ATP-assay as described in the following paragraphs. In essence, the enzyme activity is measured by quantification of the adenosine-di-phosphate (ADP), which is generated as a co-product of the enzyme reaction, via the “ADP-Glo™ Kinase Assay” kit from the company Promega. This detection system works as follows: In a first step the ATP not consumed in the kinase reaction is quantitatively converted to cAMP employing an adenylate cyclase (“ADP-Glo-reagent”), then the adenylate cyclase is stopped and the ADP generated in the kinase reaction converted to ATP which generates in a luciferase-based reaction a glow-luminescence signal (“Kinase Detection Reagent”).
Recombinant fusion protein of N-terminal Glutathion-S-Transferase (GST) and full-length human CSNK1A1, expressed by baculovirus infected insect cells and purified via Glutathion affinity chromatography, was purchased from Life Technologies (product no. PV4174) and used as enzyme. As substrate for the kinase reaction the biotinylated peptide biotin-Ahx-KRRRAL-pS-VASLPGL (C-terminus in amide form) was used which can be purchased e.g. from the company Biosyntan (Berlin-Buch, Germany).
For the assay 50 nl of a 100 fold concentrated solution of the test compound in DMSO was pipetted into a white low volume 384-well microtiter plate (Greiner Bio-One, Frickenhausen, Germany), 2 μL of a solution of CSNK1A1 in aqueous assay buffer [50 mM HEPES pH 7.5, 10% (v/v) glycerol, 10 mM MgCl2, 50 mM NaCl, 1 mM dithiothreitol, 0.01% (w/v) bovine serum albumin, 0.01% (v/v) Triton X-100] were added and the mixture was incubated for 15 min at 22° C. to allow pre-binding of the test compounds to the enzyme before the start of the kinase reaction. […] The concentration of CSNK1A1 was adjusted depending of the activity of the enzyme lot and was chosen appropriate to have the assay in the linear range, a typical concentration is about 0.4 ng/μL. The reaction was stopped by the addition of 2.5 μL of “ADP-Glo-reagent” (1:1.5 fold diluted with water) and the resulting mixture was incubated at 22° C. for 1 h to convert the ATP not consumed in the kinase reaction completely […]. Subsequently 2.5 μL of the “kinase detection reagent” (1.2 fold more concentrated than recommended by the producer) were added, the resulting mixture was incubated at 22° C. for 1 h and then the luminescence measured with a suitable measurement instrument (e.g. Viewlux™ from Perkin-Elmer). The amount of emitted light was taken as a measure for the amount of ADP generated and thereby for the activity of the CSNK1A1.

[3] = target: T1, human CSNK1A1; test: CSNK1A1 Assay 2 (ADP-Glo, 1 μM ATP); conditions: substrate biotin-Ahx-KRRRAL-pS-VASLPGL, read-out: CSNK1A1 Assay 2 IC50 [mol/l] (median)
Procedure: CSNK1A1-inhibitory activity of compounds of the present invention in presence of 1 μM adenosine-tri-phosphate (ATP) was quantified employing the CSNK1A1 assay as described in the following paragraphs. In essence, the enzyme activity is measured by quantification of the adenosine-di-phosphate (ADP), which is generated as a co-product of the enzyme reaction, via the “ADP-Glo™ Kinase Assay” kit from the company Promega. This detection system works as follows: In a first step the ATP not consumed in the kinase reaction is quantitatively converted to cAMP employing an adenylate cyclase (“ADP-Glo-reagent”), then the adenylate cyclase is stopped and the ADP generated in the kinase reaction converted to ATP which generates in a luciferase-based reaction a glow-luminescence signal (“Kinase Detection Reagent”). Recombinant fusion protein of N-terminal Glutathion-S-Transferase (GST) and full-length human CSNK1A1, expressed by baculovirus infected insect cells and purified via Glutathion affinity chromatography, was purchased from Life Technologies (product no. PV4174) and used as enzyme. As substrate for the kinase reaction the biotinylated peptide biotin-Ahx-KRRRAL-pS-VASLPGL (C-terminus in amide form) was used which can be purchased e.g. from the company Biosyntan (Berlin-Buch, Germany).
For the assay 50 nl of a 100 fold concentrated solution of the test compound in DMSO was pipetted into a white 1536-well microtiter plate (Greiner Bio-One, Frickenhausen, Germany), 2 μL of a solution of CSNK1A1 in aqueous assay buffer [50 mM HEPES pH 7.5, 10% (v/v) glycerol, 10 mM MgCl2, 50 mM NaCl, 1 mM dithiothreitol, 0.01% (w/v) bovine serum albumin, 0.01% (v/v) Triton X-100] were added and the mixture was incubated for 15 min at 22° C. to allow pre-binding of the test compounds to the enzyme before the start of the kinase reaction. […] The concentration of CSNK1A1 was adjusted depending of the activity of the enzyme lot and was chosen appropriate to have the assay in the linear range, a typical concentrations are about 0.0375 ng/μL. The reaction was stopped by the addition of 2.5 μL of “ADP-Glo-reagent” (1:1.5 fold diluted with water) and the resulting mixture was incubated at 22° C. for 1 h to convert the ATP not consumed in the kinase reaction completely […]. Subsequently 2.5 μL of the “kinase detection reagent” (1.2 fold more concentrated than recommended by the producer) were added, the resulting mixture was incubated at 22° C. for 1 h and then the luminescence measured with a suitable measurement instrument (e.g. Viewlux™ from Perkin-Elmer). The amount of emitted light was taken as a measure for the amount of ADP generated and thereby for the activity of the CSNK1A1.

[4] = target: human CSNK1D (Homo sapiens (Human), UniProt P48730); test: CSNK1D Assay (ADP-Glo, 1 μM ATP); conditions: read-out: CSNK1D IC50 [mol/l] (median)
Procedure: CSNK1 D-inhibitory activity of compounds of the present invention in presence of 1 μM adenosine-tri-phosphate (ATP) was quantified employing the CSNK1D assay as described in the following paragraphs. In essence, the enzyme activity is measured by quantification of the adenosine-di-phosphate (ADP), which is generated as a co-product of the enzyme reaction, via the “ADP-Glo™ Kinase Assay” kit from the company Promega. This detection system works as follows: In a first step the ATP not consumed in the kinase reaction is quantitatively converted to cAMP employing an adenylate cyclase (“ADP-Glo-reagent”), then the adenylate cyclase is stopped and the ADP generated in the kinase reaction converted to ATP which generates in a luciferase-based reaction a glow-luminescence signal (“Kinase Detection Reagent”). Recombinant fusion protein of N-terminal Glutathion-S-Transferase (GST) and full-length human CSNK1D, expressed by baculovirus infected insect cells and purified via Glutathion affinity chromatography, was purchased from Life Technologies (product no. PV3665) and used as enzyme. As substrate for the kinase reaction the biotinylated peptide Btn-Ahx-[…] (C-terminus in amide form) was used which can be purchased e.g. from the company Biosyntan (Berlin-Buch, Germany).
For the assay 50 nl of a 100 fold concentrated solution of the test compound in DMSO was pipetted into a white 1536-well microtiter plate (Greiner Bio-One, Frickenhausen, Germany), 2 μL of a solution of CSNK1D in aqueous assay buffer [50 mM HEPES pH 7.5, 10% (v/v) glycerol, 10 mM MgCl2, 50 mM NaCl, 1 mM dithiothreitol, 0.01% (w/v) bovine serum albumin, 0.01% (v/v) Triton X-100] were added and the mixture was incubated for 15 min at 22° C. to allow pre-binding of the test compounds to the enzyme before the start of the kinase reaction. […] The concentration of CSNK1 D was adjusted depending of the activity of the enzyme lot and was chosen appropriate to have the assay in the linear range, a typical concentration is about 0.5 ng/μL. The reaction was stopped by the addition of 2.5 μL of “ADP-Glo-reagent” (1:1.5 fold diluted with water) and the resulting mixture was incubated at 22° C. for 1 h to convert the ATP not consumed in the kinase reaction completely […]. Subsequently 2.5 μL of the “kinase detection reagent” (1.2 fold more concentrated than recommended by the producer) were added, the resulting mixture was incubated at 22° C. for 1 h and then the luminescence measured with a suitable measurement instrument (e.g. Viewlux™ from Perkin-Elmer). The amount of emitted light was taken as a measure for the amount of ADP generated and thereby for the activity of the CSNK1D.

[5] = EGFR Wildtyp- 2 mM ATP IC50 [mol/l] (median)
[6] = read-out: EGFR Wildtyp- 2 mM ATP IC50 [mol/l] (median)

human CSNK1D, sequence (P48730 whole entry): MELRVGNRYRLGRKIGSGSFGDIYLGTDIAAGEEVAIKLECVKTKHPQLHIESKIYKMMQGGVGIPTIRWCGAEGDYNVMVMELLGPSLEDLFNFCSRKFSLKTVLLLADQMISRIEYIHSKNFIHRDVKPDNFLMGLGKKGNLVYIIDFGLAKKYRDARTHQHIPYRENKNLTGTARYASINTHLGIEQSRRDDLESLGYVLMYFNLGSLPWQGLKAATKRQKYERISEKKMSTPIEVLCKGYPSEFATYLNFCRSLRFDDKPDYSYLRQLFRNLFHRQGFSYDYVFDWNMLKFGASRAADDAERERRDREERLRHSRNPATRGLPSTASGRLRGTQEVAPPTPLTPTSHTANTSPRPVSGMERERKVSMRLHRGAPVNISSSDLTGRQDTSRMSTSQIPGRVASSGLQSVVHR
T1 sequence (P48729 whole entry): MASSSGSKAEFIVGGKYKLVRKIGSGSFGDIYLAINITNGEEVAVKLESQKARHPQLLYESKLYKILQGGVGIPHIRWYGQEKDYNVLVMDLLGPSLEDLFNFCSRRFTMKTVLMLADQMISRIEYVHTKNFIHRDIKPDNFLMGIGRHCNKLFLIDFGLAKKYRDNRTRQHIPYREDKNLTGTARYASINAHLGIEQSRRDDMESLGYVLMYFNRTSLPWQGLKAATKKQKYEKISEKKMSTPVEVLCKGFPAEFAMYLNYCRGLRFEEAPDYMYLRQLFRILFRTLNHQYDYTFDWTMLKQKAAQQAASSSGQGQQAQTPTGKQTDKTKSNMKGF
wild-type Epidermal Growth Factor Receptor (EGFR), sequence (P00533 669-1210): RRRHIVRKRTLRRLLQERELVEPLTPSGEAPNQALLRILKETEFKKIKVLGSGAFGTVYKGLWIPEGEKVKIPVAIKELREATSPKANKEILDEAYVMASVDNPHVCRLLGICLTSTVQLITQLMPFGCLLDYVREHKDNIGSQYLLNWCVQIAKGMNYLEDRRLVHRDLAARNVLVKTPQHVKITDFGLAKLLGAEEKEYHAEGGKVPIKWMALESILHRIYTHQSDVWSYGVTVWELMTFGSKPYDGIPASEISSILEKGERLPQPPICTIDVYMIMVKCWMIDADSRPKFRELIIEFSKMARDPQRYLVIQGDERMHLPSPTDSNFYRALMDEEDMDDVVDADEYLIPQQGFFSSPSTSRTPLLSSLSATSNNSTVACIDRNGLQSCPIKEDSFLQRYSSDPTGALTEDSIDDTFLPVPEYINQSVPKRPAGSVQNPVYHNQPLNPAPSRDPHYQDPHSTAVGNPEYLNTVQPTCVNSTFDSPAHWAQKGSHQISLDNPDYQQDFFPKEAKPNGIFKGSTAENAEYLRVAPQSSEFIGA

Structure (SMILES) | IC50 [1, 5] [nM] | IC50 [2] | IC50 [3] [nM] | IC50 [4] [nM] | IC50 [1, 6] [nM]
CN1CCc2[nH]c(-c3ccnc(NC(=O)C(CC(F)F)c4ccccc4)c3)c(Nc3ccccc3)c2C1=O (single isomer, unassigned) [Example 34, N-[4-(3-anilino-5-methyl-4-oxo-4,5,6,7-tetrahydro-1H-pyrrolo[3,2-c]pyridin-2-yl)pyridin-2-yl]-4,4-difluoro-2-phenylbutanamide] | > 20000 | 16.5 nM | 2.68 |  | 
CN1CCc2[nH]c(-c3ccnc(NC(=O)Cc4ccc(N(C)C)cc4)c3)c(Nc3ccccc3)c2C1=O [Example 84, N-[4-(3-anilino-5-methyl-4-oxo-4,5,6,7-tetrahydro-1H-pyrrolo[3,2-c]pyridin-2-yl)pyridin-2-yl]-2-[4-(dimethylamino)phenyl]acetamide] |  | 217 nM | 2.64 | 8.5 | 
CC(C(=O)Nc1cc(-c2[nH]c3c(c2Nc2ccccc2)C(=O)NC(C)(C)C3)ccn1)c1ccc(F)cc1 (single isomer, unassigned; (+)) [Example 40, (+)-N-[4-(3-anilino-6,6-dimethyl-4-oxo-4,5,6,7-tetrahydro-1H-pyrrolo[3,2-c]pyridin-2-yl)pyridin-2-yl]-2-(4-fluorophenyl)propanamide] |  | 51.7 nM | 4.59 | 10.5 | 
Cc1ccccc1Nc1c(-c2ccnc(NC(=O)Cc3ccc(F)cc3)c2)[nH]c2c1C(=O)NC(C)(C)C2 [Example 113, N-{4-[6,6-dimethyl-3-(2-methylanilino)-4-oxo-4,5,6,7-tetrahydro-1H-pyrrolo[3,2-c]pyridin-2-yl]pyridin-2-yl}-2-(4-fluorophenyl)acetamide] | > 5710 |  |  |  | 
CN1CCc2[nH]c(-c3ccnc(NC(=O)C(CCN4CCOCC4)c4ccccc4)c3)c(Nc3ccccc3)c2C1=O (single isomer, unassigned) [Example 31, N-[4-(3-anilino-5-methyl-4-oxo-4,5,6,7-tetrahydro-1H-pyrrolo[3,2-c]pyridin-2-yl)pyridin-2-yl]-4-(morpholin-4-yl)-2-phenylbutanamide] | > 20000 | 249 nM | 3.85 |  | 
CN1CCc2[nH]c(-c3ccnc(NC(=O)C(CCN4CCOCC4)c4ccccc4)c3)c(Nc3ccccc3)c2C1=O (single isomer, unassigned) [Example 32, N-[4-(3-anilino-5-methyl-4-oxo-4,5,6,7-tetrahydro-1H-pyrrolo[3,2-c]pyridin-2-yl)pyridin-2-yl]-4-(morpholin-4-yl)-2-phenylbutanamide] |  | 4560 nM | 72.2 |  | > 20000
CN(C)CCC(C(=O)Nc1cc(-c2[nH]c3c(c2Nc2ccccc2)C(=O)N(C)CC3)ccn1)c1ccccc1 (centres unmarked) [Example 38, N-[4-(3-anilino-5-methyl-4-oxo-4,5,6,7-tetrahydro-1H-pyrrolo[3,2-c]pyridin-2-yl)pyridin-2-yl]-4-(dimethylamino)-2-phenylbutanamide] |  | 1290 nM | 14.6 |  | 6690
CN1C(=O)c2c([nH]c(-c3ccnc(NC(=O)C(CC(F)F)c4ccc(F)cc4)c3)c2Nc2ccccc2)CC12CCC2 (single isomer, unassigned; enantiomer 1) [Example 161, (−)-N-[4-(3′-anilino-5′-methyl-4′-oxo-1′,4′,5′,7′-tetrahydrospiro[cyclobutane-1,6′-pyrrolo[3,2-c]pyridin]-2′-yl)pyridin-2-yl]-4,4-difluoro-2-(4-fluorophenyl)butanamide (Enantiomer 1)] | > 20000 | > 20000 nM and 19100 nM and 10600 nM and 14600 nM |  | 360 | 
CN1CCc2[nH]c(-c3ccnc(NC(=O)C(CC(F)F)c4ccccc4)c3)c(Nc3ccccc3)c2C1=O (single isomer, unassigned) [Example 35, N-[4-(3-anilino-5-methyl-4-oxo-4,5,6,7-tetrahydro-1H-pyrrolo[3,2-c]pyridin-2-yl)pyridin-2-yl]-4,4-difluoro-2-phenylbutanamide] | 14800 | 705 nM | 20.5 |  | 
CC1(C)Cc2[nH]c(-c3ccnc(NC(=O)Cc4ccc(F)cc4)c3)c(Nc3cccc(F)n3)c2C(=O)N1 [Example 127, 2-(4-fluorophenyl)-N-(4-{3-[(6-fluoropyridin-2-yl)amino]-6,6-dimethyl-4-oxo-4,5,6,7-tetrahydro-1H-pyrrolo[3,2-c]pyridin-2-yl}pyridin-2-yl)acetamide-1,1′,1″-phosphoryltripyrrolidine salt] | 16900 |  |  |  | 
